Data set [1] concerns HCV replicon cells. The data set can be described thus: Cell-based HCV Replicon Assay. Particulars: Hepatitis C virus, 72 h; replicon RNA level by real time PCR (Taqman), day 3; EC90 = concentration to achieve ΔCT=3.2 over baseline. How it is done:
Assays Cell-based HCV Replicon Assay
To measure cell-based anti-HCV activity of the compounds of the present invention, replicon cells were seeded at 5000 cells/well in 96-well collagen I-coated Nunc plates in the presence of the compound of the invention. […] The final concentration of DMSO was 0.5%, fetal bovine serum was 10%, in the assay media. […] The replicon RNA level was measured using real time PCR (Taqman assay). The amplicon was located in 5B. The
GAPDH RNA was used as endogenous control and was amplified in the same reaction as NS5B (multiplex PCR) using primers and VIC-labeled probe recommended by the manufacturer (PE Applied Biosystem). The real-time RT-PCR reactions were run on ABI PRISM 7900HT Sequence Detection System using the following program: 48° C. for 30 min, 95° C. for 10 min, 40 cycles of 95° C. for 15 sec, 60° C. for 1 min. The ΔCT values (CT5B-CTGAPDH) were plotted against the concentration of test compound and fitted to the sigmoid dose-response model using GraphPad PRISM software. EC50 was defined as the concentration of inhibitor necessary to achieve ΔCT=1 over the projected baseline; EC90 the concentration necessary to achieve ΔCT=3.2 over the baseline. Alternatively, to quantitate the absolute amount of replicon RNA, a standard curve was established by including serially diluted T7 transcripts of replicon RNA in the Taqman assay. […]

These results are taken from patent US8470834B2, “AZO-substituted pyridine and pyrimidine derivatives and their use in treating viral infections” (Merck Sharp & Dohme Corp., priority 2008, dated 2013).

Each structure is given as a SMILES string.

Consider `Nc1nc(Cl)c(/N=N/c2ccc(Cl)cc2)c(N[C@H]2C[C@@H](CO)[C@H](O)[C@@H]2O)n1` [Compound 11, (1S,2R,3S,5S)-3-[[2-amino-6-chloro-5-[(4-chlorophenyl)azo]-4-pyrimidinyl]amino]-5-(hydroxymethyl)-1,2-cyclopentanediol], for which the melting point was 238 to 241 °C (dec.).
In the case of `Nc1nc(Cl)c(/N=N/c2ccc(Cl)cc2)c(N[C@@H]2C[C@H](CO)[C@@H](O)C2)n1` (racemic) [Compound 8, Cyclopentanemethanol, 4-[[2-amino-6-chloro-5-[(4-chlorophenyl)azo]-4-pyrimidinyl]amino]-2-hydroxy-, cis, trans—(+−)—], the EC90 in data set [1] is more than 5 µM.
